In BindingDB's records for doi:10.1021/jm9704863 (Cor Therapeutics, 1998):

Biological target: Integrin alpha-IIb/beta-3 (Homo sapiens, UniProt P08514+P05106)
Test: Inhibition of platelet aggregation induced by 20 uM adenosine 5'-diphosphate (ADP) in human platelet rich plasma (h-PRP).

Integrin alpha-IIb/beta-3, sequence (P05106 27-788 limits assumed): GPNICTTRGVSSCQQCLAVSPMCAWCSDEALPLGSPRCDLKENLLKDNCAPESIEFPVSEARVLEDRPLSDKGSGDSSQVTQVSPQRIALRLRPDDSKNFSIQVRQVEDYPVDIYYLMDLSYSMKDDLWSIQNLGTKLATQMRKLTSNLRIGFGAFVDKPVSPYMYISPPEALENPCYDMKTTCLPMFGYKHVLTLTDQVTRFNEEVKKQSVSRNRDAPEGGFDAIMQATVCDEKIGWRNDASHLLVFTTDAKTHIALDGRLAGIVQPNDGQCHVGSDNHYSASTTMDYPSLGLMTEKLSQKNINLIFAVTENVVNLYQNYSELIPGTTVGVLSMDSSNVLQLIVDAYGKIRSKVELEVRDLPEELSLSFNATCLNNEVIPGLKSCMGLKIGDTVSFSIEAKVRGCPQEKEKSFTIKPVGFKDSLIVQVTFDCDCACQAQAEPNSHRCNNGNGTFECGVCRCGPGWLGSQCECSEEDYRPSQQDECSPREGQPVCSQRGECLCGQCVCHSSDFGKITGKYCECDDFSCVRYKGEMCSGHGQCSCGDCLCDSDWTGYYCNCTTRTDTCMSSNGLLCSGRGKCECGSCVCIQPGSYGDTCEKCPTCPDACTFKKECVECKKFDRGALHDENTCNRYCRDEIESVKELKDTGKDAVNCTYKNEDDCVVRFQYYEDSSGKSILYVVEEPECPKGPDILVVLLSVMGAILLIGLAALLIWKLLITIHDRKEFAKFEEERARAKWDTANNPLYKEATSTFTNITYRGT
Integrin alpha-IIb/beta-3, sequence (P08514 32-887 limits assumed): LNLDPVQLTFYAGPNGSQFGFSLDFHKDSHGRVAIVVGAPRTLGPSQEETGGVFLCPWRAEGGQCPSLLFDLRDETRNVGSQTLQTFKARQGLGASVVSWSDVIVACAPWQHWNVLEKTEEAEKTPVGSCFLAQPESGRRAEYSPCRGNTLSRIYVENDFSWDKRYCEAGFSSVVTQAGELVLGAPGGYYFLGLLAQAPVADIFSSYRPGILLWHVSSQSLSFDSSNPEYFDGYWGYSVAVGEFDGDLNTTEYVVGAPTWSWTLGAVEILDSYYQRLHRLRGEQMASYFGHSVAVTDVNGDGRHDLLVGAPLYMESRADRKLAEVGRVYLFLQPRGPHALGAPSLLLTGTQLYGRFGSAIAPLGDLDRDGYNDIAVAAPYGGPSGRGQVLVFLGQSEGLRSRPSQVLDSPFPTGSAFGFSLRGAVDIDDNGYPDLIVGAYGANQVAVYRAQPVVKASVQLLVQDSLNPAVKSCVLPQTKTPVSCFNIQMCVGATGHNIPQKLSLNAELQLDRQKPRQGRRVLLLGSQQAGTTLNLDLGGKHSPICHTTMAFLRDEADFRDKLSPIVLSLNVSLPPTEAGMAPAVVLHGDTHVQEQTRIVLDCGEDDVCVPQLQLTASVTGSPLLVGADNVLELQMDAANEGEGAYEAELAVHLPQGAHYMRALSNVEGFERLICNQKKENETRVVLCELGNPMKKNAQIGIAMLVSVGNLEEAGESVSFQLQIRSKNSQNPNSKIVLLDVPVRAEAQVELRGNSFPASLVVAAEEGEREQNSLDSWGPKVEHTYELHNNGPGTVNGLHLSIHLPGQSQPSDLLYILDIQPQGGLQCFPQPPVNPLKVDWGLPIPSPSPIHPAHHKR
Integrin alpha-IIb/beta-3, sequence (P08514 891-1039 limits assumed): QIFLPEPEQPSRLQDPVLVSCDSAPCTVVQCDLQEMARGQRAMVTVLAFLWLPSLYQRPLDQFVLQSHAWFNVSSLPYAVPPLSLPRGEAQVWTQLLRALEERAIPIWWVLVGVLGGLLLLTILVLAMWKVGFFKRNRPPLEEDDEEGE

Which IC50 does the source give for `CCCCS(=O)(=O)NC(CNC(=O)CCNC(=O)c1cc2ccc(C(=N)N)cc2[nH]1)C(=O)O` (configuration not stated) [2-(Butane-1-sulfonylamino)-3-{3-[(6-carbamimidoyl-1H-indole-2-carbonyl)-amino]-propionylamino}-propionic acid] here?
The IC50 was 55 nM.

With `N=C(N)c1ccc2oc(C(=O)NCCC(=O)NC(CC(=O)O)c3cc(F)ccc3F)cc2c1` (configuration not stated) [3-{3-[(5-Carbamimidoyl-benzofuran-2-carbonyl)-amino]-propionylamino}-3-(2,5-difluoro-phenyl)-propionic acid] as the molecule, how does the IC50 read?
The IC50 was 300 nM.

For `CCCCS(=O)(=O)NC(CNC(=O)CCNC(=O)c1[nH]nc2cc(C(=N)N)ccc12)C(=O)O` (configuration not stated) [2-(Butane-1-sulfonylamino)-3-{3-[(6-carbamimidoyl-1H-indazole-3-carbonyl)-amino]-propionylamino}-propionic acid], which IC50 is on record?
The IC50 was 53 nM.

For `N=C(N)c1ccc2oc(C(=O)NCCC(=O)NC(CC(=O)O)C(F)(F)F)cc2c1` (configuration not stated) [3-{3-[(5-Carbamimidoyl-benzofuran-2-carbonyl)-amino]-propionylamino}-4,4,4-trifluoro-butyric acid], which IC50 is on record?
Its IC50 is 250 nM.

Which IC50 does the source give for `N=C(N)c1ccc2cc(C(=O)NCCC(=O)NC(CC(=O)O)c3ccccc3)[nH]c2c1` (configuration not stated) [3-{3-[(6-Carbamimidoyl-1H-indole-2-carbonyl)-amino]-propionylamino}-3-phenyl-propionic acid] here?
Its IC50 is 1350 nM.

For `N=C(N)c1ccc2[nH]c(C(=O)N3CCC(C(=O)NC(CC(=O)O)c4ccccc4)CC3)cc2c1` (configuration not stated) [3-{[1-(5-Carbamimidoyl-1H-indole-2-carbonyl)-piperidine-4-carbonyl]-amino}-3-phenyl-propionic acid], which IC50 is on record?
Its IC50 is 25000 nM.

With `CCCCS(=O)(=O)N[C@@H](CNC(=O)CCNC(=O)c1cc2cc(C(=N)N)ccc2o1)C(=O)O` [(S)-2-(Butane-1-sulfonylamino)-3-{3-[(5-carbamimidoyl-benzofuran-2-carbonyl)-amino]-propionylamino}-propionic acid] as the molecule, how does the IC50 read?
Its IC50 is 35 nM.

For `CC(C)(NC(=O)c1cc2cc(C(=N)N)ccc2[nH]1)C(=O)NC(CC(=O)O)c1ccccc1` (configuration not stated) [3-{2-[(5-Carbamimidoyl-1H-indole-2-carbonyl)-amino]-2-methyl-propionylamino}-3-phenyl-propionic acid], which IC50 is on record?
The IC50 was 250000 nM.

With `N=C(N)c1ccc2[nH]c(C(=O)NCCC(=O)NC(CC(=O)O)c3ccccc3)cc2c1` (configuration not stated) [3-{3-[(5-Carbamimidoyl-1H-indole-2-carbonyl)-amino]-propionylamino}-3-phenyl-propionic acid] as the molecule, how does the IC50 read?
Its IC50 is 8000 nM.

For `N=C(N)c1ccc2oc(C(=O)NCCC(=O)NC(CCc3c[nH]c4ccccc34)CC(=O)O)cc2c1` (configuration not stated) [3-{3-[(5-Carbamimidoyl-benzofuran-2-carbonyl)-amino]-propionylamino}-5-(1H-indol-3-yl)-pentanoic acid], which IC50 is on record?
Its IC50 is 600 nM.

For `N=C(N)c1ccc2[nH]c(C(=O)Nc3cccc(C(=O)NC(CC(=O)O)c4ccccc4)c3)cc2c1` (configuration not stated) [3-{3-[(5-Carbamimidoyl-1H-indole-2-carbonyl)-amino]-benzoylamino}-3-phenyl-propionic acid], which IC50 is on record?
The IC50 was 25000 nM.

Which IC50 does the source give for `CN(CCC(=O)NC(CC(=O)O)c1ccccc1)C(=O)c1cc2cc(C(=N)N)ccc2o1` (configuration not stated) [3-{3-[(5-Carbamimidoyl-benzofuran-2-carbonyl)-methyl-amino]-propionylamino}-3-phenyl-propionic acid] here?
The IC50 was 250 nM.

For `N=C(N)c1ccc2oc(C(=O)N3Cc4ccccc4CC3C(=O)NC(CC(=O)O)c3ccccc3)cc2c1` (configuration not stated) [3-{[2-(5-Carbamimidoyl-benzofuran-2-carbonyl)-1,2,3,4-tetrahydro-isoquinoline-3-carbonyl]-amino}-3-phenyl-propionic acid], which IC50 is on record?
Its IC50 is 5000 nM.

Which IC50 does the source give for `CN(CC(=O)NC(CC(=O)O)c1ccccc1)C(=O)c1cc2cc(C(=N)N)ccc2[nH]1` (configuration not stated) [3-{2-[(5-Carbamimidoyl-1H-indole-2-carbonyl)-methyl-amino]-acetylamino}-3-phenyl-propionic acid] here?
The IC50 was 25000 nM.

With `N=C(N)c1ccc2[nH]c(C(=O)N3CCC[C@H]3C(=O)NC(CC(=O)O)c3ccccc3)cc2c1` (stereo partly drawn) [3-{[(S)-1-(5-Carbamimidoyl-1H-indole-2-carbonyl)-pyrrolidine-2-carbonyl]-amino}-3-phenyl-propionic acid] as the molecule, how does the IC50 read?
The IC50 was 5000 nM.

Which IC50 does the source give for `N=C(N)c1ccc2c(C(=O)NCCC(=O)NC(CC(=O)O)c3ccccc3)c[nH]c2c1` (configuration not stated) [3-{3-[(6-Carbamimidoyl-1H-indole-3-carbonyl)-amino]-propionylamino}-3-phenyl-propionic acid] here?
Its IC50 is 2200 nM.

With `N=C(N)c1ccc2[nH]c(C(=O)NC(CC(=O)NC(CC(=O)O)c3ccccc3)C(F)(F)F)cc2c1` (configuration not stated) [3-{3-[(5-Carbamimidoyl-1H-indole-2-carbonyl)-amino]-4,4,4-trifluoro-butyrylamino}-3-phenyl-propionic acid] as the molecule, how does the IC50 read?
Its IC50 is 50000 nM.

Which IC50 does the source give for `C#CC(CC(=O)O)NC(=O)CCNC(=O)c1cc2cc(C(=N)N)ccc2o1` (configuration not stated) [3-{3-[(5-Carbamimidoyl-benzofuran-2-carbonyl)-amino]-propionylamino}-pent-4-ynoic acid] here?
Its IC50 is 300 nM.

For `N=C(N)c1ccc2oc(C(=O)NCCC(=O)NC(CC(=O)O)c3ccccc3)cc2c1` (configuration not stated) [3-{3-[(5-Carbamimidoyl-benzofuran-2-carbonyl)-amino]-propionylamino}-3-phenyl-propionic acid], which IC50 is on record?
The IC50 was 250 nM.

Which IC50 does the source give for `N=C(N)c1ccc2oc(C(=O)NCCC(=O)NC(CC(=O)O)c3cccnc3)cc2c1` (configuration not stated) [3-{3-[(5-Carbamimidoyl-benzofuran-2-carbonyl)-amino]-propionylamino}-3-pyridin-3-yl-propionic acid] here?
The IC50 was 200 nM.

Which IC50 does the source give for `CN(CCC(=O)NC(CC(=O)O)c1ccccc1)C(=O)c1cc2cc(C(=N)N)ccc2[nH]1` (configuration not stated) [3-{3-[(5-Carbamimidoyl-1H-indole-2-carbonyl)-methyl-amino]-propionylamino}-3-phenyl-propionic acid] here?
Its IC50 is 5000 nM.

For `COc1ccc(C(CC(=O)O)NC(=O)CCNC(=O)c2cc3cc(C(=N)N)ccc3o2)cc1OC` (configuration not stated) [3-{3-[(5-Carbamimidoyl-benzofuran-2-carbonyl)-amino]-propionylamino}-3-(3,4-dimethoxy-phenyl)-propionic acid], which IC50 is on record?
The IC50 was 300 nM.

For `N=C(N)c1ccc2oc(C(=O)N3CCC[C@@H]3C(=O)NC(CC(=O)O)c3ccccc3)cc2c1` (stereo partly drawn) [3-{[(R)-1-(5-Carbamimidoyl-benzofuran-2-carbonyl)-pyrrolidine-2-carbonyl]-amino}-3-phenyl-propionic acid], which IC50 is on record?
Its IC50 is 2000 nM.

Which IC50 does the source give for `N=C(N)c1ccc2oc(C(=O)N3CCCC(C(=O)NC(CC(=O)O)c4ccccc4)C3)cc2c1` (configuration not stated) [3-{[1-(5-Carbamimidoyl-benzofuran-2-carbonyl)-piperidine-3-carbonyl]-amino}-3-phenyl-propionic acid] here?
Its IC50 is 250 nM.

For `N=C(N)c1ccc2oc(C(=O)NCCC(=O)NC(CC(=O)O)c3cc(F)cc(F)c3)cc2c1` (configuration not stated) [3-{3-[(5-Carbamimidoyl-benzofuran-2-carbonyl)-amino]-propionylamino}-3-(3,5-difluoro-phenyl)-propionic acid], which IC50 is on record?
The IC50 was 350 nM.

With `N=C(N)c1ccc2oc(C(=O)NCCC(=O)NC[C@H](N)C(=O)O)cc2c1` [(S)-2-Amino-3-{3-[(5-carbamimidoyl-benzofuran-2-carbonyl)-amino]-propionylamino}-propionic acid] as the molecule, how does the IC50 read?
Its IC50 is 200 nM.

Which IC50 does the source give for `N=C(N)c1ccc2[nH]c(C(=O)NCC(=O)NC(CC(=O)O)c3ccccc3)cc2c1` (configuration not stated) [3-{2-[(5-Carbamimidoyl-1H-indole-2-carbonyl)-amino]-acetylamino}-3-phenyl-propionic acid] here?
The IC50 was 50000 nM.

Which IC50 does the source give for `N=C(N)c1ccc2c(C(=O)NCCC(=O)NC(CC(=O)O)c3ccccc3)[nH]nc2c1` (configuration not stated) [3-{3-[(6-Carbamimidoyl-1H-indazole-3-carbonyl)-amino]-propionylamino}-3-phenyl-propionic acid] here?
Its IC50 is 630 nM.

For `CC(CC(=O)NC(CC(=O)O)c1ccccc1)NC(=O)c1cc2cc(C(=N)N)ccc2[nH]1` (configuration not stated) [3-{3-[(5-Carbamimidoyl-1H-indole-2-carbonyl)-amino]-butyrylamino}-3-phenyl-propionic acid], which IC50 is on record?
The IC50 was 5000 nM.

With `N=C(N)c1ccc2oc(C(=O)NCCC(=O)NC(CC(=O)O)c3ccc(F)c(F)c3)cc2c1` (configuration not stated) [3-{3-[(5-Carbamimidoyl-benzofuran-2-carbonyl)-amino]-propionylamino}-3-(3,4-difluoro-phenyl)-propionic acid] as the molecule, how does the IC50 read?
The IC50 was 500 nM.

Biological target: not listed separately
Test: Inhibition of 20 uM ADP-induced platelet aggregation in human platelet-rich plasma

Which IC50 does the source give for `CN(C)c1cccc2c(S(=O)(=O)N[C@@H](CNC(=O)CCNC(=O)c3cc4cc(C(=N)N)ccc4o3)C(=O)O)cccc12` [(S)-3-{3-[(5-Carbamimidoyl-benzofuran-2-carbonyl)-amino]-propionylamino}-2-(5-dimethylamino-naphthalene-1-sulfonylamino)-propionic acid] here?
Its IC50 is 65 nM.

For `N=C(N)c1ccc2oc(C(=O)NCCC(=O)NC[C@H](NS(=O)(=O)c3ccc(I)cc3)C(=O)O)cc2c1` [(S)-3-{3-[(5-Carbamimidoyl-benzofuran-2-carbonyl)-amino]-propionylamino}-2-(4-iodo-benzenesulfonylamino)-propionic acid], which IC50 is on record?
Its IC50 is 25 nM.
